The values that follow come from publication PMC8625693, “Synthesis and Structure-Activity Relationships of New 2-Phenoxybenzamides with Antiplasmodial Activity” (Pharmaceuticals, 2021).

For one data set, the target named is T1, CYP3A4 (Homo sapiens, UniProt P08684).
T1 construct: purchased Corning, Glendale, AZ, USA
Kind of data set: Cytochrom P450 3A4 inhibition assay (P450-Glo, luciferin-IPA). Conditions: recombinant human CYP3A4 Supersomes (+ oxidoreductase + b5), probe luciferin-IPA, stock solutions diluted to 20 µM, pH 7.4, triplicate. The class given is in vitro ADME. The method, then:
The CYP3A4 inhibition assay was performed using 96-well White Plates (Greiner Bio-One) at a pH of 7.4. […] Stock solutions were further diluted to a final concentration of 20 µM using water (HPLC grade). The luciferin IPA stock solution (3 mM) was diluted to a final concentration of 0.3 mM using water (HPLC grade). The CYP3A4 reaction mixture was prepared by mixing water (HPLC grade) with potassium phosphate buffer (1 M), luciferin IPA (0.3 mM) and CYP3A4 membrane (1 pmol/µL). The control reaction mixture was prepared using water (HPLC grade), potassium phosphate buffer (1 M), luciferin IPA (0.3 mM) and membrane without CYP activity (1 pmol/µL). Solutions A and B of the NADPH regeneration system were mixed and HPLC grade water was added. The reconstituted luciferin detection reagent was prepared by mixing the reconstituted buffer with esterase with the luciferin detection reagent. Then, solutions of test compounds and standard were added to the wells of the 96-well White Plate, each was tested in triplicate. The CYP3A4 reaction mixture was added to each well and the plate was incubated for 10 min at room temperature. After that, the NADPH regeneration system was added, inducing the reaction followed by an incubation time of 10 min at ambient temperature. By adding the reconstituted luciferin detection reagent, the reaction was terminated, and a luminescent signal was formed. Luminescence was measured by a SpectraMax M3 UV plate reader (Molecular Devices). The relative light units (RLU) were received from a calibration curve with beetle luciferin. […] The CYP3A4 inhibition (%) was calculated from the RLU.

A short description of data set [1]: Parallel artificial membrane permeability assay (PAMPA). Particulars: pH 7.4. The method, then: The PAMPA was performed using a Corning Gentest Pre-coated PAMPA Plate System at a pH of 7.4. It consists of 96-well polystyrene plates, whereas the donor-plate (bottom plate) is a conventional 96-well microtiter plate. The base of the acceptor-plate (top plate) consists of a porous membrane. The pores are lined with a lipid-oil-lipid trilayer. Stock solutions (10 mM) of each test compound were prepared in DMSO or MeOH and then further diluted to a final concentration of 200 µM with phosphate-buffered saline (PBS) at a pH of 7.4. Compound solutions were then added to the wells of the donor plate and pure PBS was added to each well of the acceptor plate. Compounds and negative control (pure PBS) were tested in quadruplicates. Donor and acceptor plate were coupled and incubated at ambient temperature for 5 h. After that, the plates were separated and solutions from each well of both plates were transferred onto 96-well UV-Star Microplates (Greiner Bio-One). The UV-absorption was measured at different wavelengths (between 200 and 300 nm) by a SpectraMax M3 UV plate reader (Molecular Devices). The concentrations were received from a calibration curve for each substance. The plates were analyzed at a wavelength were the R^2 value of the calibration curve was higher than 0.99 [48]. […] (2) cequ=cDt* VD+cAt* VA/VD+VA where: • cD(t)—compound concentration in donor well at time t.
Recovery of compounds from donor and acceptor wells (mass retention) was calculated as shown in the equation below. Data were only accepted when recovery exceeded 70%. (3) R=1−cDt∗ VD+cAt∗ VA/c0∗ VD where: • R—mass retention (%); • cA(t)—compound concentration in acceptor well at time t; • cD(t)—compound concentration in donor well at time t; • c0—initial compound concentration in donor well; • VD—donor well volume; • VA—acceptor well volume.

Data set [2] can be described thus: In vitro cytotoxicity with L-6 cells (Alamar Blue). Format: cell-based, rat. Conditions: rat, Cytotoxicity L-6 Cells IC50. The method, then: (§1) All newly synthesized compounds were tested for their antiplasmodial activity against the chloroquine-sensitive strain Plasmodium falciparum NF54. Cytotoxicity was determined using rat skeletal myofibroblasts (L-6 cells). As standards chloroquine and podophyllotoxin were used.
(§2) In vitro cytotoxicity was determined using a primary cell line of rat skeletal myofibroblasts. The assay was performed in 96-well microtiter plates, each well containing 0.1 mL of RPMI 1640 medium, supplemented with 0.1% L-glutamine (200 mM) and 10% fetal bovine serum, as well as 4000 L-6 cells. Serial drug dilutions of 11 3-fold dilution steps (covering a range from 100–0.002 µg/mL) were prepared. After 70 h of incubation time, the plates were inspected under an inverted microscope to ensure sterile conditions and growth of the controls. […] Podophyllotoxin (Sigma P4405) was used as control.

The test system of a further data set is L-6 cells. The data set can be described thus: In vitro cytotoxicity with L-6 cells (Alamar Blue). Format: cell-based, rat. Particulars: rat, 72 h. The method, then:
as §1, §2
Background: Resazurin is reduced to fluorescent resorufin, in cell work by metabolically active cells.

In a further data set the test system is P. falciparum NF54. Kind of data set: In vitro microplate assay against P. falciparum NF54 (3H-hypoxanthine incorporation, erythrocytic stages). Format: cell-based, Plasmodium falciparum. Particulars: average of four determinations, read-out: P.f. NF54 IC50. The method, then:
as §1
In vitro activity against erythrocytic stages of P. falciparum was determined with a ^3H-hypoxanthine incorporation assay, using the chloroquine sensitive NF54 strain [44]. Chloroquine (Sigma C6628) was used as standard. Test compounds were dissolved in DMSO at 10 mg/mL and added to parasite cultures incubated in RPMI 1640 medium without hypoxanthine, supplemented with HEPES (5.94 g/L, NaHCO3 (2.1 g/L), neomycin (100 U/mL), Albumax (5 g/L) and washed human red blood cells A^+ at 2.5% hematocrit (0.3% parasitemia). Serial drug dilutions of 11 3-fold dilution steps (covering a range from 100–0.002 µg/mL) were prepared. The 96-well plates were incubated at a humidified atmosphere at 37 °C; 4% CO2, 3% O2, 93% N2. After 48 h, 0.05 mL of ^3H-hypoxanthine (=0.5 µCi) was added to each well. The plates were incubated for another 24 h under the same conditions. Then, the plates were harvested with a Betaplate cell harvester (Wallac, Zurich, Switzerland). The red blood cells were transferred onto glass fiber filter and washed with distilled water. The dried filters were inserted into a plastic foil with 10 mL of scintillation fluid and counted in a Betaplate liquid scintillation counter. IC50 values were determined from sigmoidal inhibition curves by linear regression using Microsoft Excel. Chloroquine was used as control.

Another data set concerns P. falciparum 3D7-A10. Also noted: method as in PMID 31813848, PMID 32682267. Particulars: erythrocytic cycle of 40 h, different drug concentrations; cited from earlier work.
For a further data set, the system named is P. falciparum. Particulars: long-term in vitro, sub-lethal doses, cited from earlier work.
The mark [3] stands for this setting: chloroquine-sensitive strain NF54, blood stages.
The mark [4] stands for this setting: Plasmodium falciparum, NF54, chloroquine-sensitive strain NF54, blood stages.

Like-named read-outs stand apart in the source and are kept apart here.

T1 sequence (P08684 2-503 limits assumed): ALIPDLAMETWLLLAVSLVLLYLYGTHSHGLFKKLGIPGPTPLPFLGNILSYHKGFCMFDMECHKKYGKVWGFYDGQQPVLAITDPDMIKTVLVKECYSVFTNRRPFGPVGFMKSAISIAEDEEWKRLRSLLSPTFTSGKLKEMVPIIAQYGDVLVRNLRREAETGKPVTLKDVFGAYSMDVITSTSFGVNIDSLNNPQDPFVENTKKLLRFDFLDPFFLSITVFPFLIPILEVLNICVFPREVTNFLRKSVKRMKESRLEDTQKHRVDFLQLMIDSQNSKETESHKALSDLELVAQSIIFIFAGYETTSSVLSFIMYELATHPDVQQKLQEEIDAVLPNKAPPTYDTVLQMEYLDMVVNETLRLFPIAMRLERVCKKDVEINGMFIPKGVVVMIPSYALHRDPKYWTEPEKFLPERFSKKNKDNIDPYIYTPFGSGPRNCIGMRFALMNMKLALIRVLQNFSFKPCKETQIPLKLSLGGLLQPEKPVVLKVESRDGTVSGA

In general, inhibition refers to the share of the control response that was lost under treatment. As usually defined, the Papp is a coefficient for how fast a substance crosses the barrier. A high value points to ready permeation. In general, IC50 refers to the concentration that inhibits the measured activity by half. Consider `CC(C)(C)C(=O)N1CCN(c2ccc(NC(=O)c3cccc(C(F)(F)F)c3Oc3ccc(F)cc3)cc2)CC1` [Compound 39, N-{4-[4-(2,2-Dimethylpropanoyl)piperazin-1-yl]phenyl}-2-(4-fluorophenoxy)-3-(trifluoromethyl)benzamide], for which the inhibition at 10 min, 20 µM at CYP3A4 worked out at 89%. Further, the Papp at 5 h, 200 µM in data set [1] is 0.24 ×10⁻⁶ cm/s. Further, in data set [2], the IC50 at 72 h was 78 to 99.6 µM. Moreover, the IC50 with L-6 cells amounted to 99.6 µM; in the data set with P. falciparum NF54 (chloroquine-sensitive strain NF54, blood stages, H, N-pivaloylpiperazinyl), 0.269 µM; with P. falciparum NF54 (setting [3]) it was 0.58 µM.
By melting point is commonly meant the temperature, or range, at which the solid turns liquid. `CC(C)(C)N1CCN(c2ccccc2NC(=O)c2cccc(C(F)(F)F)c2Oc2ccc(F)cc2)CC1` [Compound 20, 2-(4-Fluorophenoxy)-N-[2-(4-tert-butylpiperazin-1-yl)phenyl]-3-(trifluoromethyl)benzamide] gave a melting point of 142 to 145 °C. Also, the Papp at 5 h, 200 µM in data set [1] is 2.48 ×10⁻⁶ cm/s. This molecule also registered an IC50 at 72 h in data set [2] of 34.7 µM. Also, the concentration for half-maximal inhibition (IC50) in the data set on P. falciparum NF54 (setting [4]) is 2.89 µM.
For the molecule `CC(C)(C)OC(=O)N1CCN(c2ccccc2NC(=O)c2cccc(C(F)(F)F)c2Oc2ccc(F)cc2)CC1` [Compound 1, tert-Butyl-4-{2-[2-(4-fluorophenoxy)-3-(trifluoromethyl)benzamido]phenyl}piperazine-1-carboxylate], the inhibition at 10 min, 20 µM on CYP3A4 was 87%. Besides, the stage specific activity result in the data set on P. falciparum 3D7-A10 was “peak activity in sub-micromolar concentrations on late stage trophozoites”. The Papp at 5 h, 200 µM in data set [1] turned out to be 2.37 ×10⁻⁶ cm/s. Further, the resistance development result in the data set on P. falciparum is listed as “did neither acquire resistances, nor cross-resistances”; in the data set with P. falciparum (listed as MMV030666) it was “development of resistant parasites could not be observed”. The molecule also displayed an IC50 at 72 h in data set [2] of 131 µM. Also, in the data set with P. falciparum NF54 (setting [4]), the IC50 is 0.413 µM.
Turning to `CC(C)(C)OC(=O)N1CCN(c2ccc(NC(=O)c3cccc(C(F)(F)F)c3Oc3ccccc3)cc2)CC1` [Compound 54, tert-Butyl-4-{4-[2-phenoxy-3-(trifluoromethyl)benzamido]phenyl}piperazine-1-carboxylate], at CYP3A4, the inhibition at 10 min, 20 µM came to 80%. Also, in data set [1], the Papp at 5 h, 200 µM stood at 1.22 ×10⁻⁶ cm/s. In addition, inhibition in data set [2] was half-maximal at 124 µM (IC50 at 72 h). Further, the IC50 with L-6 cells turned out to be 185 µM; in the data set on P. falciparum NF54 (setting [4]), 1.22 µM.
For `CC(C)(C)C(=O)N1CCN(c2cccc(NC(=O)c3cccc(C(F)(F)F)c3Oc3ccc(F)cc3)c2)CC1` [Compound 38, N-{3-[4-(2,2-Dimethylpropanoyl)piperazin-1-yl]phenyl}-2-(4-fluorophenoxy)-3-(trifluoromethyl)benzamide], the Papp at 5 h, 200 µM in data set [1] was 1.17 ×10⁻⁶ cm/s. The molecule further had an IC50 at 72 h in data set [2] of 78 to 99.6 µM. Further, the IC50 in the data set on L-6 cells came out at 78 µM; in the data set with P. falciparum NF54 (setting [4]) it was 3.17 µM.
In data set [1], `CC(C)(C)C(=O)N1CCN(c2ccccc2NC(=O)c2cccc(C(F)(F)F)c2Oc2ccccc2)CC1` [Compound 56, N-{2-[4-(2,2-Dimethylpropanoyl)piperazin-1-yl]phenyl}-2-phenoxy-3-(trifluoromethyl)benzamide] displayed a Papp at 5 h, 200 µM of 0.11 ×10⁻⁶ cm/s. In addition, the IC50 at 72 h in data set [2] was in the range of 185 to 190 µM. The IC50 with L-6 cells is 190 µM; with P. falciparum NF54 (setting [4]), 0.617 to 0.659 µM; with P. falciparum NF54 (setting [3]), 0.659 µM.
Consider `O=C(Nc1ccccc1)c1cccc(C(F)(F)F)c1Oc1ccc(F)cc1` [Compound 12, 2-(4-Fluorophenoxy)-N-phenyl-3-(trifluoromethyl)benzamide], for which the Papp at 5 h, 200 µM in data set [1] amounted to 10.1 ×10⁻⁶ cm/s. For the same molecule, the IC50 at 72 h in data set [2] lay within 129 to 202 µM. Further, the IC50 in the data set with L-6 cells is 202 µM; in the data set on P. falciparum NF54 (setting [4]), 9.33 to 21.3 µM; with P. falciparum NF54 (setting [3]), 9.33 µM.
Take `CC(C)(C)C(=O)N1CCN(c2ccccc2NC(=O)c2cccc(C(F)(F)F)c2Oc2ccc(F)cc2)CC1` [Compound 19, N-{2-[4-(2,2-Dimethylpropanoyl)piperazin-1-yl]phenyl}-2-(4-fluorophenoxy)-3-(trifluoromethyl)benzamide]: at CYP3A4, the inhibition at 10 min, 20 µM amounted to 94%. Moreover, in data set [1], the Papp at 5 h, 200 µM came out at 0.23 ×10⁻⁶ cm/s. The molecule further registered an IC50 at 72 h in data set [2] of 185 to 190 µM. Further, the IC50 in the data set with L-6 cells is 185 µM; in the data set with P. falciparum NF54 (setting [4]) it was 0.617 to 0.659 µM; in the data set on P. falciparum NF54 (setting [3]) it was 0.617 µM.
`O=CN1CCN(c2ccccc2NC(=O)c2cccc(C(F)(F)F)c2Oc2ccc(F)cc2)CC1` [Compound 18, 2-(4-Fluorophenoxy)-N-[2-(4-formylpiperazin-1-yl)phenyl]-3-(trifluoromethyl)benzamide]: the inhibition at 10 min, 20 µM on CYP3A4 is 82%. Besides, the Papp at 5 h, 200 µM in data set [1] came to 1.05 ×10⁻⁶ cm/s. In data set [2], this molecule came in with an IC50 at 72 h of 31.8 to 35.4 µM. The results for the IC50 in the data set with L-6 cells, in the data set with P. falciparum NF54 (setting [4]) and with P. falciparum NF54 (setting [3]) were 31.8 µM, 6.58 to 15.6 µM and 6.58 µM, respectively.
